Test results reported in US20080318938A1, “METHODS FOR TREATING ABERRANT CELL PROLIFERATION DISORDERS” (priority 2007, published 2008).

What was measured:
[1] = system: σ (non-selective) sigma receptors; assay: Receptor binding
M4 Muscarinic receptor = M4 Muscarinic receptor (Homo sapiens, UniProt P08173); assay: Receptor binding
[2] = target: CCKB/CCK2 Cholecystokinin receptor (Homo sapiens, UniProt P32239); assay: Receptor binding
RPMI-8226 = assay: Inhibition of cell proliferation (MTT); type: cell-based; conditions: Homo sapiens; RPMI-8226, Leukemia; 48 hours
Description: (§1) Inhibition of cell proliferation is determined in human tumor cell lines. Innoculation density and doubling times for specific cell lines are listed at World Wide Web URL “dtp.nci.nih.gov/docs/misc/common_files/cell_list.html.”
(§2) • 1. Plate adherent cells the day before starting the experiment in 180 μl growth media (see list hereafter). • 2. Day of experiment, count and plate suspension cells in 180 μl growth media (see list on next page). • 3. Make 10× Compound, vehicle, and chemotherapeutic cocktail • a. Compound (1× to 10×) • i. 10 μM Compound to 100 μM • ii. 3 μM Compound to 30 μM • iii. 1 μM Compound to 10 μM • iv. 0.3 μM Compound to 3 μM • v. 0.1 μM Compound to 1 μM • b. Vehicle • i. PBS, equivalent to the volume used for 10 μM Compound (1× is ˜0.06% PBS) • c. Chemotherapeutic cocktail (1× to 10×): • i. 1 μM Velcade to 10 μM • ii. 100 μM Etoposide to 1 mM • iii. 20 μM Taxol to 200 μM • 4. Add 20 μl of the 10× compound/vehicle/chemotherapeutic cocktail to cells. • 5. Incubate at 37° C., 5% CO2 for 48 hours. • 6. Aspirate media. For suspension cells, spin plate at 1500 RPM for 10 minutes. Use a multichannel pipettor to slowly remove media. • 7. Add 200 μl of Thiazolyl Blue Tetrazolium Bromide (MTT) to each well: 0.863 mg/ml MTT in growth media.
(§3) Proliferation of several cancer cells was inhibited by compound TA1-1B (which is a particular mixture of the isomers represented by TA1-1A), as shown in the following table (Table 1). The value EC50 is the amount of Compound TA1-1B that results in 50% inhibition of proliferation of the indicated cell type.

TF-1 = assay: Inhibition of cell proliferation (MTT); type: cell-based; conditions: Homo sapiens; TF-1, Leukemia; 48 hours
Description: as §1, §2, §3

RS1184 = assay: Inhibition of cell proliferation (MTT); type: cell-based; conditions: Homo sapiens; RS1184, Lymphoma; 48 hours
Description: as §1, §2, §3

Raji = assay: Inhibition of cell proliferation (MTT); type: cell-based; conditions: Homo sapiens, Lymphoma, 48 hours
Description: as §1, §2, §3

Jurkat = assay: Inhibition of cell proliferation (MTT); type: cell-based; conditions: Homo sapiens, Leukemia, 48 hours
Description: as §1, §2, §3

Daudi = assay: Inhibition of cell proliferation (MTT); type: cell-based; conditions: Homo sapiens, Lymphoma, 48 hours
Description: as §1, §2, §3

NCI-H460 = assay: Inhibition of cell proliferation (MTT); type: cell-based; conditions: Homo sapiens; NCI-H460, Non Small Cell Lung; 48 hours
Description: as §1, §2, §3

Hut78 = assay: Inhibition of cell proliferation (MTT); type: cell-based; conditions: Homo sapiens; Hut78, Lymphoma; 48 hours
Description: as §1, §2, §3

OVCAR-5 = assay: Inhibition of cell proliferation (MTT); type: cell-based; conditions: Homo sapiens; OVCAR-5, Ovarian; 48 hours
Description: as §1, §2, §3

MOLT-3 = assay: Inhibition of cell proliferation (MTT); type: cell-based; conditions: Homo sapiens; MOLT-3, Leukemia; 48 hours
Description: as §1, §2, §3

Hs602 = assay: Inhibition of cell proliferation (MTT); type: cell-based; conditions: Homo sapiens; Hs602, Lymphoma; 48 hours
Description: as §1, §2, §3

CCK2/CCKB = target: T1, CCK2/CCKB (Homo sapiens, UniProt P32239); assay: Receptor functional assay; type: biochemical
T1 sequence (P32239 1-447): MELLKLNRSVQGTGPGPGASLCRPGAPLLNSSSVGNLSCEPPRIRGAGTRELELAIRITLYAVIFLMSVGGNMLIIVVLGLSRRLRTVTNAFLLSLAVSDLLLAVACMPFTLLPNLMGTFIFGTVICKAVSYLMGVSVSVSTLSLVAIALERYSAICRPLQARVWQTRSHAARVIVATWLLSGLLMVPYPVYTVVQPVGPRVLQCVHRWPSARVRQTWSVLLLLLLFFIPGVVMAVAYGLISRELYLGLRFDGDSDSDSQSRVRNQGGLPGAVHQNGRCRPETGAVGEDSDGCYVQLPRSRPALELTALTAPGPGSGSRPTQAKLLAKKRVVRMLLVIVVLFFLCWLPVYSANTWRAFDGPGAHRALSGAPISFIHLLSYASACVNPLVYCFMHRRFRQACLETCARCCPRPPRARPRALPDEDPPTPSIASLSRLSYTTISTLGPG
Description: (§4) The binding IC50, functional effect, and functional EC50 of TA1-1B on exemplary receptors was determined.

SST4 = SST4 (Homo sapiens, UniProt P31391); assay: Receptor functional assay; type: biochemical
Description: as §4

CCK1/CCKA = target: T2, CCK1/CCKA (Homo sapiens, UniProt P32238); assay: Receptor functional assay; type: biochemical
T2 sequence (P32238 1-428): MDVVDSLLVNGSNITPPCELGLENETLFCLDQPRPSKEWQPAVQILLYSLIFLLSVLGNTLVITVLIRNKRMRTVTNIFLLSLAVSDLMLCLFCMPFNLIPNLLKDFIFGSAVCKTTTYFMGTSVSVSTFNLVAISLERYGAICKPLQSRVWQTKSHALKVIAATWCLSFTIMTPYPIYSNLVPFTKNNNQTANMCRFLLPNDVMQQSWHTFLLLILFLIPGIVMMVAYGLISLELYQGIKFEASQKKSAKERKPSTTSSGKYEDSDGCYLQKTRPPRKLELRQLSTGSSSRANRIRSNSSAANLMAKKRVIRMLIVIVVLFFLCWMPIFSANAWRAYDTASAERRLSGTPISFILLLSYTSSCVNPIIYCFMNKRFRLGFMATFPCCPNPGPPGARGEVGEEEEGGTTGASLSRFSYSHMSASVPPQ
Description: as §4

SST5 = SST5 (Homo sapiens, UniProt P35346); assay: Receptor functional assay; type: biochemical
Description: as §4

SST1 = SST1 (Homo sapiens, UniProt P30872); assay: Receptor functional assay; type: biochemical
Description: as §4

Chain of SST5 (P35346 whole entry, species assumed): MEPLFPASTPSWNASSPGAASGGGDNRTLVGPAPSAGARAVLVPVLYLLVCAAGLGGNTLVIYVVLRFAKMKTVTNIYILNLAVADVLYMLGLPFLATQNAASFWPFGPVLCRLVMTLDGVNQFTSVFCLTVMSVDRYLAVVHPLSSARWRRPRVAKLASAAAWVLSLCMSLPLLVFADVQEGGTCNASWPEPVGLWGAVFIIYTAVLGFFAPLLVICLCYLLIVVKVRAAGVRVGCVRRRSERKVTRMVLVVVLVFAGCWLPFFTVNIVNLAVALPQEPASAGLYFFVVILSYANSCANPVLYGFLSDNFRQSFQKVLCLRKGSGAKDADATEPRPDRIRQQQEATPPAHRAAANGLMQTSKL
Chain of SST1 (P30872 whole entry, species assumed): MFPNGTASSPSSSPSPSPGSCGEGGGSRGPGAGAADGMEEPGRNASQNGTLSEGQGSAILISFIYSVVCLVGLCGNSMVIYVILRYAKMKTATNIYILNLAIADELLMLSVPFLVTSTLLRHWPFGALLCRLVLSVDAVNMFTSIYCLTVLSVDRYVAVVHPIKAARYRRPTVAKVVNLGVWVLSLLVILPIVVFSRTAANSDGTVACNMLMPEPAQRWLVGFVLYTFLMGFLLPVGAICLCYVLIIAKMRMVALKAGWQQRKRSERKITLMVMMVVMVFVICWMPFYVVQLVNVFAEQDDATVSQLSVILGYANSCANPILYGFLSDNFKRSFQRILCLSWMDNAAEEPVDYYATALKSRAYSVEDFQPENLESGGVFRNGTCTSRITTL
Chain of SST4 (P31391 whole entry, species assumed): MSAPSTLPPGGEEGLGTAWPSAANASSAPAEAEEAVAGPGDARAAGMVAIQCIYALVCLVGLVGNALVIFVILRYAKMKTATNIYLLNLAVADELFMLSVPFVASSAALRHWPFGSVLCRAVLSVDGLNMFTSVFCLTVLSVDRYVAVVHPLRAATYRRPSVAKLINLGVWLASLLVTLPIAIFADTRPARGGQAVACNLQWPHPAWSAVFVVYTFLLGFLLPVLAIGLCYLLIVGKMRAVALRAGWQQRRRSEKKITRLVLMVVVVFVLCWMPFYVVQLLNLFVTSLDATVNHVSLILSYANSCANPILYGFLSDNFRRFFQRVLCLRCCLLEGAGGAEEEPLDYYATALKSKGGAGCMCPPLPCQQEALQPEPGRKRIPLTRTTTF
Chain of M4 Muscarinic receptor (P08173 whole entry): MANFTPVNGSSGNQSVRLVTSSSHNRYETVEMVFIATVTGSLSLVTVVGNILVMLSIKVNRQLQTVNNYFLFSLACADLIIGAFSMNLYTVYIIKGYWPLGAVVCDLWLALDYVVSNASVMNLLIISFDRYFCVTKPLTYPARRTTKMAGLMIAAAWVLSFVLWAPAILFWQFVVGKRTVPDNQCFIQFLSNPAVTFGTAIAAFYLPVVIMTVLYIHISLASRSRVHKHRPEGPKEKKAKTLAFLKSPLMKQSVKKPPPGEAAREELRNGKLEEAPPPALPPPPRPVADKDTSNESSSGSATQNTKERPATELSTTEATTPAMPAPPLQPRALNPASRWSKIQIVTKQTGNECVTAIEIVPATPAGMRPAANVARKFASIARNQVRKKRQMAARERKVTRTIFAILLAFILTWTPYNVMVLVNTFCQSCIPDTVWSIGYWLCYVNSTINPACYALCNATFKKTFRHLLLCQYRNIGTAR

For `CN1CCC[C@H]1CCNC(=O)c1cn2c3c(c(N4CCC(c5cnccn5)C4)c(F)cc3c1=O)Oc1cc3ccccc3cc1-2` (some centres unmarked) [TA1-1B], the “% inhibition @ 1 uM” value [1] was 67%, the inhibition at 1 µM (M4 Muscarinic receptor) was 87% and the inhibition at 1 µM [2] was 93%. For the same compound, the EC50 (RPMI-8226) was 1370 nM, the EC50 (TF-1) was 5460 nM and the EC50 (RS1184) was 3250 nM. It also gave an EC50 (Raji) of 1880 nM, an EC50 (Jurkat) of 1210 nM and an EC50 (Daudi) of 1290 nM. For the same compound, the EC50 (NCI-H460) was 4010 nM, the EC50 (Hut78) was 3300 nM and the EC50 (OVCAR-5) was 2170 nM. The EC50 (MOLT-3) was 1140 nM, the EC50 (Hs602) was 1280 nM and the EC50 (CCK2/CCKB; antagonist) was 9000 nM. The Kb (CCK2/CCKB; antagonist) was 400 nM, the “Functional Effect” value (CCK2/CCKB; response noted at 10 μM) was “Antagonist” and the EC50 (SST4; agonist) was 9900 nM. The “Functional Effect” value (SST4; response noted at 10 μM) was “Agonist”, the EC50 (CCK1/CCKA; antagonist) was 1600 nM and the Kb (CCK1/CCKA; antagonist) was 340 nM. The “Functional Effect” value (CCK1/CCKA; response noted at 1 μM) was “Antagonist”, the EC50 (SST5; agonist) was 4700 nM and the “Functional Effect” value (SST5; response noted at 10 μM) was “Agonist”. The EC50 (SST1; agonist) was 4300 nM and the “Functional Effect” value (SST1; response noted at 10 μM) was “Agonist”.
